Results published in patent US9221827B2, “Antimicrobial compounds and methods of making and using the same” (Melinta Therapeutics, Inc., priority 2011, dated 2015).

Tested on: Escherichia coli strain ATCC25922
Assay: standard microdilution assay to determine minimum inhibitory concentrations (MICs)
Format: cell-based
Summary of the method: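 Broth microdilution per CLSI (M7-A8/M100-S20), 100 μl final volume, with reference-strain quality control; MIC is the lowest inhibitory concentration. Scored "+"/"−" against a 16 micrograms/ml cutoff, "N/A" where unavailable.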

[1] = Escherichia coli strain ATCC25922, microdilution
[2] = Escherichia coli strain ATCC25922, standard microdilution assay

| SMILES | E. coli ATCC25922 MIC [1] | E. coli ATCC25922 MIC [2] |
| --- | --- | --- |
| CC(N)CCCc1cc(-c2cc3cn(-c4ccc(CNCCCNC(=N)N)cc4)c(=O)nc3[nH]2)cc(C(F)(F)F)c1 (stereo not drawn) [Compound 27] | + (a “+” indicates that the compound has an MIC value of 16 micrograms/ml or less) | – |
| CC(CN)Cc1cc(OC(F)(F)F)cc(-c2cc3cn(-c4ccc(CNCCCNC(=N)N)cc4)c(=O)nc3[nH]2)c1 (stereo not drawn) [Compound 241] | + (a “+” indicates that the compound has an MIC value of 16 micrograms/ml or less) | – |
| C[C@H](NCCCNC(=N)N)c1ccc(-n2cc3cc(-c4cc(CCC5(CN)CC5)cc(SC(F)(F)F)c4)[nH]c3nc2=O)cc1 [Compound 310] | + (a “+” indicates that the compound has an MIC value of 16 micrograms/ml or less) | – |
| N=C(N)NCCCNCc1ccc(-n2cc3cc(-c4cc(CSCCN)ccc4F)[nH]c3nc2=O)cc1 [Compound 7] | + (a “+” indicates that the compound has an MIC value of 16 micrograms/ml or less) | – |
| C[C@H](NCCCNC(=N)N)c1ccc(-n2cc3cc(-c4cc(CCCCN)cc(F)c4Cl)[nH]c3nc2=O)cc1 [Compound 67] | + (a “+” indicates that the compound has an MIC value of 16 micrograms/ml or less) | – |
| CC(N)CCCc1cc(-c2cc3cn(-c4ccc(CNCCCCC(=N)N)cc4)c(=O)nc3[nH]2)cc(C(F)(F)F)c1 (stereo not drawn) [Compound 365] | – | − (a “−” indicates that the compound has an MIC value greater than 16 micrograms/ml) |
| C[C@@H](CCCc1cc(SC(F)(F)F)cc(-c2cc3cn(-c4ccc(CNCCCNC(=N)N)cc4)c(=O)nc3[nH]2)c1)N(C)C [Compound 302] | + (a “+” indicates that the compound has an MIC value of 16 micrograms/ml or less) | – |
| N=C(N)NCCCNCc1ccc(-n2cc3cc(-c4cc(CCCCN)cc(CF)c4C(F)(F)F)[nH]c3nc2=O)cc1 [Compound 244] | + (a “+” indicates that the compound has an MIC value of 16 micrograms/ml or less) | – |
| N=C(N)NCCCNCc1ccc(-n2cc3cc(-c4cc(CCCCN)cc(-n5ccnc5)c4)[nH]c3nc2=O)cc1 [Compound 59] | + (a “+” indicates that the compound has an MIC value of 16 micrograms/ml or less) | – |
| COC(=O)CC(NCCCNC(=N)N)c1ccc(-n2cc3cc(-c4cc(CCCC(C)N)cc(Cl)c4F)[nH]c3nc2=O)cc1 (stereo not drawn) [Compound 487] | + (a “+” indicates that the compound has an MIC value of 16 micrograms/ml or less) | – |
| N=C(N)NCCCNCc1ccc(-n2cc3cc(-c4cc(CCCCN)cc(Cl)c4C(F)(F)F)[nH]c3nc2=O)cc1 [Compound 226] | + (a “+” indicates that the compound has an MIC value of 16 micrograms/ml or less) | – |
| CCc1cc(CCCC(C)N)cc(-c2cc3cn(-c4ccc(CNCCCNC(=N)N)cc4)c(=O)nc3[nH]2)c1F (stereo not drawn) [Compound 301] | + (a “+” indicates that the compound has an MIC value of 16 micrograms/ml or less) | – |
| N=C(N)NCCCNCc1ccc(-n2cc3cc(-c4cc(CCC5(CN)CCC5)cc(Cl)c4F)[nH]c3nc2=O)cc1 [Compound 253] | + (a “+” indicates that the compound has an MIC value of 16 micrograms/ml or less) | – |
| Cc1cc(CCCC(C)N)cc(-c2cc3cn(-c4ccc(CNCCCNC(=N)N)cc4)c(=O)nc3[nH]2)c1F (stereo not drawn) [Compound 219] | + (a “+” indicates that the compound has an MIC value of 16 micrograms/ml or less) | – |
| CC(N)C(C)OCc1cc(OC(F)(F)F)cc(-c2cc3cn(-c4ccc(CNCCCNC(=N)N)cc4)c(=O)nc3[nH]2)c1 (stereo not drawn) [Compound 418] | – | + (a “+” indicates that the compound has an MIC value of 16 micrograms/ml or less) |
| N=C(N)NCCCNCc1ccc(-n2cc3cc(-c4cc(COCCN)cc(OC(F)(F)F)c4)[nH]c3nc2=O)cc1 [Compound 36] | + (a “+” indicates that the compound has an MIC value of 16 micrograms/ml or less) | – |
| CCc1cc(CCCC(C)NC(=N)N)cc(-c2cc3cn(-c4ccc(CNCCCNC(=N)N)cc4)c(=O)nc3[nH]2)c1Cl (stereo not drawn) [Compound 284] | + (a “+” indicates that the compound has an MIC value of 16 micrograms/ml or less) | – |
| N=C(N)NCCCNCc1ccc(-n2cc3cc(-c4cc(CCC5(CN)CCC5)cc(F)c4Cl)[nH]c3nc2=O)cc1 [Compound 138] | + (a “+” indicates that the compound has an MIC value of 16 micrograms/ml or less) | – |
| C[C@H](NCCCNC(=N)N)c1ccc(-n2cc3cc(-c4cc(CCCC(C)(C)N)cc(SC(F)(F)F)c4)[nH]c3nc2=O)cc1 [Compound 304] | + (a “+” indicates that the compound has an MIC value of 16 micrograms/ml or less) | – |
| N=C(N)NCCCNCc1ccc(-n2cc3cc(-c4cc(CCCCN)cc(F)c4C(F)(F)F)[nH]c3nc2=O)cc1 [Compound 218] | + (a “+” indicates that the compound has an MIC value of 16 micrograms/ml or less) | – |
| N=C(N)NCCCNCc1ccc(-n2cc3cc(-c4cc(CC5CC(CN)C5)cc(C(F)(F)F)c4)[nH]c3nc2=O)cc1 (stereo not drawn) [Compound 349] | – | + (a “+” indicates that the compound has an MIC value of 16 micrograms/ml or less) |

| SMILES | E. coli ATCC25922 MIC [1] | E. coli ATCC25922 MIC [2] |
| --- | --- | --- |
| C[C@H](N)CCCc1cc(SC(F)(F)F)cc(-c2cc3cn(-c4ccc(CNCCCNC(=N)N)cc4)c(=O)nc3[nH]2)c1 [Compound 235] | + (a “+” indicates that the compound has an MIC value of 16 micrograms/ml or less) | – |
| CC(NCCCNC(=N)N)c1ccc(-n2cc3cc(-c4cc(CC5CCC(N)C5)cc(SC(F)(F)F)c4)[nH]c3nc2=O)cc1 (mixture of isomers) [Compound 420] | – | + (a “+” indicates that the compound has an MIC value of 16 micrograms/ml or less) |
| CCC(N)CCCc1cc(SC(F)(F)F)cc(-c2cc3cn(-c4ccc(CNCCCNC(=N)N)cc4)c(=O)nc3[nH]2)c1 (stereo not drawn) [Compound 380] | – | + (a “+” indicates that the compound has an MIC value of 16 micrograms/ml or less) |
| CC(NCCCNC(=N)N)c1ccc(-n2cc3cc(-c4cc(CCC5CC(N)C5)cc(Cl)c4F)[nH]c3nc2=O)cc1 (stereo not drawn) [Compound 384] | – | + (a “+” indicates that the compound has an MIC value of 16 micrograms/ml or less) |
| CC(N)COC(C)c1cc(-c2cc3cn(-c4ccc([C@H](C)NCCCNC(=N)N)cc4)c(=O)nc3[nH]2)cc(C(F)(F)F)c1 (stereo partly drawn) [Compound 478] | + (a “+” indicates that the compound has an MIC value of 16 micrograms/ml or less) | – |
| C[C@H](N)CCCc1cc2c(c(-c3cc4cn(-c5ccc([C@H](C)NCCCNC(=N)N)cc5)c(=O)nc4[nH]3)c1)OCCC2=O [Compound 456] | – | + (a “+” indicates that the compound has an MIC value of 16 micrograms/ml or less) |
| CC[C@H](NCCCNC(=N)N)c1ccc(-n2cc3cc(-c4cc(CCC[C@H](C)N)cc(SC(F)(F)F)c4)[nH]c3nc2=O)cc1 [Compound 407] | – | + (a “+” indicates that the compound has an MIC value of 16 micrograms/ml or less) |
| N=C(N)NCCCNCc1c(F)cc(-n2cc3cc(-c4cc(CCCCN)ccc4F)[nH]c3nc2=O)cc1F [Compound 53] | + (a “+” indicates that the compound has an MIC value of 16 micrograms/ml or less) | – |
| CC(C)Cc1cc(CCCC(C)N)cc(-c2cc3cn(-c4ccc(C(C)NCCCNC(=N)N)cc4)c(=O)nc3[nH]2)c1 (stereo not drawn) [Compound 385] | – | + (a “+” indicates that the compound has an MIC value of 16 micrograms/ml or less) |
| COc1cc(CCCCN)cc(-c2cc3cn(-c4ccc(CNCCCNC(=N)N)cc4)c(=O)nc3[nH]2)c1 [Compound 14] | + (a “+” indicates that the compound has an MIC value of 16 micrograms/ml or less) | – |
| C[C@@H](CCCc1cc(-c2cc3cn(-c4ccc(CNCCCNC(=N)N)cc4)c(=O)nc3[nH]2)cc(C(F)(F)F)c1)N(C)C [Compound 309] | + (a “+” indicates that the compound has an MIC value of 16 micrograms/ml or less) | – |
| C[C@H](NCCCNC(=N)N)c1ccc(-n2cc3cc(-c4cc(CCCC(C)(C)N)cc(C(F)(F)F)c4)[nH]c3nc2=O)cc1 [Compound 318] | + (a “+” indicates that the compound has an MIC value of 16 micrograms/ml or less) | – |
| CC(C)(N)CCc1cc(-c2cc3cn(-c4ccc(CNCCCNC(=N)N)cc4)c(=O)nc3[nH]2)cc(C(F)(F)F)c1 [Compound 259] | + (a “+” indicates that the compound has an MIC value of 16 micrograms/ml or less) | – |
| N=C(N)NCCCNCc1ccc(-n2cc3cc(-c4cc(CC[C@H](O)CN)cc(OC(F)(F)F)c4)[nH]c3nc2=O)cc1 [Compound 239] | + (a “+” indicates that the compound has an MIC value of 16 micrograms/ml or less) | – |
| NCCCCc1cc(SC(F)(F)F)c(Cl)c(-c2cc3cn(-c4ccc(CNCCCN=C(N)N)cc4)c(=O)nc3[nH]2)c1 [Compound 92] | + (a “+” indicates that the compound has an MIC value of 16 micrograms/ml or less) | – |
| C=CC(NCCCNC(=N)N)c1ccc(-n2cc3cc(-c4cc(CCCC(C)N)cc(SC(F)(F)F)c4)[nH]c3nc2=O)cc1 (stereo not drawn) [Compound 502] | + (a “+” indicates that the compound has an MIC value of 16 micrograms/ml or less) | – |
| Cc1cc(CCCCN)cc(-c2cc3cn(-c4ccc(CNCCCNC(=N)N)cc4)c(=O)nc3[nH]2)c1 [Compound 9] | + (a “+” indicates that the compound has an MIC value of 16 micrograms/ml or less) | – |
| CCC[C@H](NCCCNC(=N)N)c1ccc(-n2cc3cc(-c4cc(CCC[C@H](C)N)cc(C(F)(F)F)c4)[nH]c3nc2=O)cc1 [Compound 427] | – | + (a “+” indicates that the compound has an MIC value of 16 micrograms/ml or less) |
| CC(N)CCCc1cc(SC(F)(F)F)c(Cl)c(-c2cc3cn(-c4ccc(C(C)NCCCNC(=N)N)cc4)c(=O)nc3[nH]2)c1 (stereo not drawn) [Compound 289] | + (a “+” indicates that the compound has an MIC value of 16 micrograms/ml or less) | – |
| CC(N)CCCc1cc(Cl)c(F)c(-c2cc3cn(-c4ccc(C(C)NCCCNC(N)=NC(C)C)cc4)c(=O)nc3[nH]2)c1 (stereo not drawn) [Compound 364] | – | + (a “+” indicates that the compound has an MIC value of 16 micrograms/ml or less) |
| C=C(CCCN)c1cc(OC(F)(F)F)cc(-c2cc3cn(-c4ccc(CNCCCNC(=N)N)cc4)c(=O)nc3[nH]2)c1 [Compound 95] | + (a “+” indicates that the compound has an MIC value of 16 micrograms/ml or less) | – |
